Test system: Colorado potato beetles (Leptinotarsa decemlineata Say)
Assay: Field test of foliar sprays on potato plots: efficacy on Colorado potato beetles, number of larvae alive
Type: in vivo
Conditions: for Number Larvae Alive 3 DAT: 3 days after treatment; for Number Larvae Alive 3 DAT / Number Larvae Alive 7 DAT / Number Larvae Alive 14 DAT / Number Larvae Alive 21 DAT / Number Larvae Alive 28 DAT: foliar spray; for Number Larvae Alive 7 DAT: 7 days after treatment; for Number Larvae Alive 14 DAT: 14 days after treatment; for Number Larvae Alive 21 DAT: 21 days after treatment; for Number Larvae Alive 28 DAT: 28 days after treatment; for Number Larvae Alive 0 Days: before treatment (0 days, baseline)
Protocol: The compositions of the present invention were tested for Colorado Potato Beetle activity in the following manner:
Test compositions made up of Fury 10 EW, Mospilan 20 SP and Regent 200 SC were prepared that provided appropriate rates of application of combinations of zeta-cypermethrin, acetamiprid and fipronil, as well as zeta-cypermethrin, acetamiprid and fipronil alone.
The test was set up as a randomized complete block with 3 replicates. Each test plot was 24 meters square containing 3 rows of 50 plants. All test materials were applied as a foliar spray in 300 liters per hectare of water using a PILMET 212 sprayer at 0.35 Mpa. Observations were made before treatment (0 days), 3 days after treatment (DAT), 7 DAT, 14 DAT, 21 DAT and 28 DAT. For each observation 50 plants were inspected. For each observation the number of larvae reported was the total on the 10 most infested plants. Results reported are an average of three replicates.

Compound: N#Cc1nn(-c2c(Cl)cc(C(F)(F)F)cc2Cl)c(N)c1[S+]([O-])C(F)(F)F (stereo not drawn) [C, 5-amino-1-(2,6-dichloro-α,α,α-trifluoro-p-tolyl)-4-trifluoromethylsulfinylpyrazole-3-carbonitrile]
- Number Larvae Alive 3 DAT (C 100 ml per hectare): 2
- Number Larvae Alive 7 DAT (C 100 ml per hectare): 0
- Number Larvae Alive 14 DAT (C 100 ml per hectare): 0
- Number Larvae Alive 21 DAT (C 100 ml per hectare): 22
- Number Larvae Alive 28 DAT (C 100 ml per hectare): 17
- Number Larvae Alive 0 Days (C 100 ml per hectare): 359

Compound: CC1(C)C(C=C(Cl)Cl)C1C(=O)OC(C#N)c1cccc(Oc2ccccc2)c1 [A, (R,S)-α-cyano-3-phenoxybenzyl-(1R,S)-cis-trans-3-(2,2-dichlorovinyl)-2,2-dimethylcyclopropanecarboxylate]
- Number Larvae Alive 3 DAT (A 200 ml per hectare): 10
- Number Larvae Alive 7 DAT (A 200 ml per hectare): 18
- Number Larvae Alive 14 DAT (A 200 ml per hectare): 15
- Number Larvae Alive 21 DAT (A 200 ml per hectare): 43
- Number Larvae Alive 28 DAT (A 200 ml per hectare): 20
- Number Larvae Alive 0 Days (A 200 ml per hectare, total on 10 most infested plants, average of 3 replicates): 303

Compound: C/C(=N\C#N)N(C)Cc1ccc(Cl)nc1 [B, (E)-N^1-[(6-chloro-3-pyridyl)methyl]-N^2-cyano-N^1-methylacetamidine]
- Number Larvae Alive 3 DAT (B 100 g per hectare): 8
- Number Larvae Alive 7 DAT (B 100 g per hectare): 22
- Number Larvae Alive 14 DAT (B 100 g per hectare): 18
- Number Larvae Alive 21 DAT (B 100 g per hectare): 38
- Number Larvae Alive 28 DAT (B 100 g per hectare): 47
- Number Larvae Alive 0 Days (B 100 g per hectare): 362
